Source: patent publication EP3398599A1, “COMPOSITIONS AND METHODS FOR PROPHYLAXIS AND TREATMENT OF ADDICTIONS” (priority 2009, dated 2010)
“Also recorded” adds a separate entry of the source.

Tests used:
[1] = tested on: msP rats; assay: Voluntary ethanol intake, acute treatment, free choice between water and 10% alcohol 24 hours a day; assay type: in vivo; details: for ethanol intake: 2, 8 and 24 hours
Method: The drug was given orally (OS) via gavage procedure in a volume of 1.0 ml/kg. Yohimbine was dissolved in distilled water and was administered intraperitoneally (IP) in a volume of 1.0 ml/kg. […] These drugs were given orally (OS) via gavage procedure in a volume of 1.0 ml/kg. Yohimbina was dissolved in distilled water and was administered intraperitoneally (IP) in a volume of 1.0 ml/kg. GW9662 was prepared in 5% DMSO and 5% TWIN 80 and was given either IP (1 ml/kg) or intacerebroventricularly (ICV, 1 µl/rat). Antalarmin was prepared in 10 % TWIN 80 and was given IP (1 ml/kg). Ondansetron was prepared in acqueous solution and was given IP (1 ml/kg).
(§1) At the beginning of the experiments, msP rats were allowed free choice between water and 10% (v/v) alcohol 24 h/day for at least 15 days. The fluids were offered in graduated drinking tubes equipped with metallic drinking spouts. The position (to the right or left) of alcohol and water drinking tubes was changed daily to avoid the development of side preference. […] Alcohol, water and food intakes were measured.
MsP rats were first trained to drink 10% (w/v) alcohol for 24 hours a day (free choice between water and ethanol). […] Before starting the treatment, rats were trained to gavage administration procedures for three days, during which they received vehicle (distilled water). […] Drinking experiments started at the beginning of the dark cycle. Alcohol, water and food intakes were monitored at 2, 8 and 24 hours after ethanol was made available.
Before starting the treatment, rats were trained to gavage and IP administration procedures for three days. Experiment was conducted in a between subject design (n = 22). […] Drinking experiments started at the beginning of the dark cycle. Alcohol, water and food intakes were monitored at 2, 8 and 24 hours after ethanol was made available.
The experiment was conduced using a within subject counterbalanced Latine square design, where each animal received all drug doses.
The drinking experiments were conducted at the beginning of the dark cycle, and alcohol, water and food intakes were monitored at 2, 8 and 24 hours after ethanol was made available.
(§2) MsP rats were first trained to drink 10% (w/v) alcohol for 24 hours a day (free choice between water and ethanol). […] Rats treated with drug vehicles served as a control. Before starting the treatment, rats were trained to gavage administration for three days, during which they received drugs vehicle (distilled water). […] Drinking experiments started at the beginning of the dark cycle. Alcohol, water, and food intakes were monitored at 2, 8 and 24 hours after ethanol was made available.
as §2, with “water” for “water,”
as §2, with “water” for “water,”
MsP rats were first trained to drink 10% (w/v) alcohol for 24 hours a day (free choice between water and ethanol). […] Rats treated with drug vehicles served as a control. Before starting the treatment, rats were trained to gavage administration for three days, during which they received drugs vehicle (distilled water).

[2] = tested on: human patients; assay: Observational study of alcohol abuse in human patients (pioglitazone 30 mg/day or naltrexone 50 mg/day + psychotherapy); assay type: in vivo; details: for CDT: mean value of blood tests
From the text: Patients were instructed to record in a personal logbook the number of drinks per day and the time of the day drinks occurred. At the end of the study, the logbooks were returned to the clinical personnel who analyzed the data.
In addition, biochemical parameters to ascertain alcohol detoxification and to measure recovery of physiological functions (i.e., hepatic function) were monitored monthly. Hematological parameters measured included: mean corpuscular volume (MCV); gamma-GT; aspartate aminotransferase (AST); alanine aminotransferase (ALT); and carbohydrate-deficient transferring (CDT). MCV and CDT are biomarkers for ethanol consumption, and GGT, ALT and AST are biomarkers for hepatic functionality.
Data were analyzed by analysis of variance followed by Newman-Keuls post hoc tests when appropriate.

[3] = tested on: CD mice; assay: Morphine-induced analgesic tolerance, tail-flick test; details: mouse, in vivo
Method: All procedures were conducted in adherence to the European Community Council Directive for Care and Use of Laboratory Animals.
Mice were divided into 6 groups. Group 1 (n=8) received drug vehicles (veh/veh). […] Animals were treated twice daily (between 9:00 and 10:00 a.m. and 9:00 and 10:00 p.m.).
Morphine hydrochloride was purchased from Salars (Milano, Italy). Morphine (30 mg/kg) was dissolved in NaCl […] and was injected intraperitoneally (IP) twice a day at the indicated doses in a volume of 0.2 ml per mice. […] It was dissolved in distilled water and was administered per o.s. at the doses of 10 mg/kg and 30 mg/kg in a volume of 0.6 ml per mice.
Two different tests were used to monitor analgesic responses. The tail-flick test was performed 45 min after the morning injection of morphine, and the tail-immersion test was performed 45 min after the evening injection of morphine.
For the tail-flick test, each mouse was gently restrained in a soft tissue pocket, and the tail (1 cm from the tip) was exposed to a hot light beam. Latency for tail-flick was measured with a 6 seconds cut-off time. For the tail-immersion test, each mouse was restrained in a soft tissue pocket, and the distal half of the tail dipped into a water bath set at 52 C°. Latency for removing the tail from the hot water was measured with a 10 seconds cut-off time.

[4] = tested on: CD mice; details: mouse, in vivo
[5] = tested on: heavy tobacco smokers; assay: Pilot study in heavy tobacco smokers (pioglitazone 15-30 mg/daily, varenicline 0.5 to 2.0 mg/day, bupropione); assay type: in vivo, human; details: for STAI score (anxiety): over 10 treatment weeks
From the text: […] Patients were instructed to record in a personal logbook the number of cigarettes per day and the time of the day smoking occurred. At the end of the study, the logbooks were returned to the clinical personnel who analyzed the data. Every other week, participants were interviewed and subjected to the Spielberger State-Trait Anxiety Inventory (STAI), the Montgomery Asberg Depression Rating Scale (M.A.D.R.S 10 Item), and to a Visual Analogic Scale (VAS) to measure nicotine craving. During the first month of treatment, every two weeks, ACTH and cortisol levels were also monitored to evaluate HPA activation before and during treatment.

[6] = tested on: msP rats; assay: Yohimbine-induced (stress-induced) reinstatement of alcohol seeking; assay type: in vivo; details: naltrexone 0.25 and 1.0 mg/kg IP 1 hour before test
[7] = tested on: msP rats; assay: Voluntary ethanol intake, subchronic (7 days) treatment, alcohol available 24 hours/day; assay type: in vivo; details: naltrexone […] IP alone or with pioglitazone 10.0 or 30.0 mg/kg OS, overall p<0.01
Method: as §1
Before starting the treatment, rats were trained to gavage administration procedures for three days, during which they received vehicle (distilled water).
(§3) Alcohol, water and food intakes were monitored at 2, 8 and 24 hours. Fluids and food intakes were monitored for three additional days after the end of the drug treatment period.
as §3

[8] = tested on: msP rats; assay: Cue-induced reinstatement of alcohol seeking; assay type: in vivo; details: naltrexone, both doses (0.25 and 1.0 mg/kg) one hour before test; p<0.01
[9] = T=0 (beginning of the treatment)

In the case of `Cc1nccn1CC1CCc2c(c3ccccc3n2C)C1=O` (centres unmarked) [ondansetron], the “ethanol intake in msP rats in a pilot study” value (shortened to “ethanol intake in msP rats”) ([1]; ondansetron 1.0 mg/kg IP) is reported as “did not reduce ethanol intake” and the ethanol intake ([1]; ondansetron alone 1.0 mg/kg IP, given twice) is reported as “did not significantly modify ethanol intake”.
With `CC[C@@H](C(N)=O)N1CCCC1=O` [levetiracetam] the “ethanol intake in msP rats” value ([1]; levetiracetam 100.0 mg/kg OS) was “did not reduce ethanol intake” and the ethanol intake ([1]; levetiracetam alone 100.0 mg/kg OS, given twice) was “did not significantly modify ethanol intake”.
With `NCC1(CC(=O)O)CCCCC1` [gabapentin] the “ethanol intake in msP rats” value ([1]; gabapentin 60.0 mg/kg OS) was “did not reduce ethanol intake” and the ethanol intake ([1]; gabapentin alone 60.0 mg/kg OS) was “did not significantly modify ethanol intake”.
`CNCCC(Oc1ccc(C(F)(F)F)cc1)c1ccccc1` (centres unmarked) [fluoxetine] was tested, and the “ethanol intake in msP rats” value ([1]; fluoxetine 3.0 mg/kg OS) was “did not reduce ethanol intake” and the ethanol intake ([1]; fluoxetine alone 3.0 mg/kg OS, given twice) was “did not significantly modify ethanol intake”.
`CN1CCN2c3ncccc3Cc3ccccc3C2C1` (centres unmarked) [mirtazapine] was tested, and the “ethanol intake in msP rats” value ([1]; mirtazapine 5.0 mg/kg OS) was “did not reduce ethanol intake” and the ethanol intake ([1]; mirtazapine alone 5.0 mg/kg OS, given twice) was “did not significantly modify ethanol intake”.
For `CCc1ccc(CCOc2ccc(CC3SC(=O)NC3=O)cc2)nc1` (centres unmarked) [pioglitazone], the “Anxiety Score obtained using The STAY-Y1 scale (mean score values)” value [2, 9] was 59.
In the case of `CN1CC[C@]23c4c5ccc(O)c4O[C@H]2[C@@H](O)C=C[C@H]3[C@H]1C5` [morphine], the “time to tail-flick on day 1, 3 and 5” value [3] is reported as “significantly increased the time to tail-flick”, the “time to tail-flick on test days 7 and 9” value [3] is reported as “non significant difference from controls” and the “analgesic effect (tail-immersion) on test day 9” value [4] is reported as “marginally significant”. For the same compound, the “tail-immersion latency on day 1, 3, 5, and 7” value [4] was “significantly increased the time to tail-flick”.
In the case of `c1cnc2cc3c(cc2n1)[C@@H]1CNC[C@H]3C1` [varenicline], the “Percent inhibition of smoking” value ([5]; Patient 1, T=0 (baseline expressed as 100%)) is reported as 100%, the “Percent inhibition of smoking” value ([5]; Patient 1, T=2 weeks of treatment) is reported as 34% and the “Percent inhibition of smoking” value ([5]; Patient 1, T=4 weeks of treatment) is reported as 46%. For the same compound, the “Percent inhibition of smoking” value ([5]; Patient 1, T=6 weeks of treatment) was 61%, the “Percent inhibition of smoking” value ([5]; Patient 1, T=8 weeks of treatment) was 80% and the “Percent inhibition of smoking” value ([5]; Patient 1, T=10 weeks of treatment) was 93%. For the same compound, the “Percent inhibition of smoking” value ([5]; Patient 2, T=0 (baseline expressed as 100%)) was 100%, the “Percent inhibition of smoking” value ([5]; Patient 2, T=2 weeks of treatment) was 22% and the “Percent inhibition of smoking” value ([5]; Patient 2, T=4 weeks of treatment) was 47%. For the same compound, the “Percent inhibition of smoking” value ([5]; Patient 2, T=6 weeks of treatment) was 63%, the “Percent inhibition of smoking” value ([5]; Patient 2, T=8 weeks of treatment) was 87% and the “Percent inhibition of smoking” value ([5]; Patient 2, T=10 weeks of treatment) was 100%. The “Percent inhibition of smoking” value ([5]; Patient 3, T=0 (baseline expressed as 100%)) was 100%, the “Percent inhibition of smoking” value ([5]; Patient 3, T=2 weeks of treatment) was 38% and the “Percent inhibition of smoking” value ([5]; Patient 3, T=4 weeks of treatment) was 54%. The “Percent inhibition of smoking” value ([5]; Patient 3, T=6 weeks of treatment) was 62%, the “Percent inhibition of smoking” value ([5]; Patient 3, T=8 weeks of treatment) was 79% and the “Percent inhibition of smoking” value ([5]; Patient 3, T=10 weeks of treatment) was 94%. The “STAI score (anxiety)” value [5] was “significantly reduced”, the “subjects reaching complete abstinence” value ([5]; pioglitazone 4 patients, varenicline 3 patients) was “one of them” and the “percent of weekly smoked cigarettes: pioglitazone vs varenicline” value ([5]; post hoc tests) was “no significant differences”.
`O=C(Nc1ccccc1)c1cc([N+](=O)[O-])ccc1Cl` [GW9662] was tested, and the “ethanol intake per se” value ([1]; GW9662 5 µg/rat ICV alone) was “did not significantly affect ethanol intake per se”, the “pioglitazone-induced reduction of ethanol intake” value ([1]; GW9662 5 µg/rat ICV with pioglitazone 30 mg/kg OS) was “completely prevented the effect of pioglitazone” and the “pioglitazone-induced reduction of ethanol intake” value ([1]; GW9662 IP (1.0 and 5.0 mg/kg) with pioglitazone 30 mg/kg OS) was “blocked the effect of pioglitazone in a dose related manner”. For the same compound, the ethanol drinking ([1]; GW9662 alone (1.0 and 5.0 mg/kg IP)) was “did not modify ethanol drinking”.
`CC(NC(C)(C)C)C(=O)c1cccc(Cl)c1` (centres unmarked) [bupropione] was tested, and the “STAI score (anxiety)” value [5] was “not with bupropione”.
`CC1(C)O[C@@H]2[C@@H](CO[C@@]3(COS(N)(=O)=O)OC(C)(C)O[C@@H]23)O1` [topiramate] was tested, and the “ethanol intake in msP rats” value ([1]; topiramate 30.0 mg/kg OS) was “did not reduce ethanol intake”, the ethanol intake ([1]; topiramate alone 30.0 mg/kg OS, given twice) was “did not significantly modify ethanol intake” and the “ethanol intake at 2 hours” value ([1]; topiramate alone 30.0 mg/kg OS, p<0.05) was “significant reduction of ethanol intake at 2 hours”.
With `O=C1CC[C@@]2(O)[C@H]3Cc4ccc(O)c5c4[C@@]2(CCN3CC2CC2)[C@H]1O5` [naltrexone] the “yohimbine-induced reinstatement of alcohol seeking” value [6] was “did not significantly reduce the effect of yohimbine”, the “Depression Scale M.A.D.R.S (mean score values)” value (“Depression Scale M.A.D.R.S” below) [2, 9] was 19 and the “Depression Scale M.A.D.R.S” value ([2]; T=1.1 (month 1, week 1)) was 16. For the same compound, the “Depression Scale M.A.D.R.S” value ([2]; T=1.2 (month 1, week 2)) was 18, the “effect on daily drinks, naltrexone vs pioglitazone” value ([2]; first two weeks of treatment, P<0.05) was “more effective than pioglitazone” and the CDT ([2]; T0) was 3.6. The CDT ([2]; T1= 4 weeks) was 3.0, the CDT ([2]; T2= 8 weeks) was 2.5 and the “decrease in MCV and CDT” value ([2]; naltrexone treated patients (NTX), two months) was “to a lesser extent compared to the pioglitazone group”. For the same compound, the “all the five biomarkers (MCV, GGT, ALT, AST, CDT): difference from controls (psychotherapy alone)” value ([2]; post hoc tests, P<0.001) was “statistical difference”, the “anxiety score: difference from controls” value ([2]; post hoc tests, P<0.001) was “statistically significant difference” and the “obsessive compulsive score for alcohol (OCDS): decrease, difference from controls” value ([2]; post hoc tests, P<0.001) was “statistically significant difference”. The “depression score (MADRS): difference from controls” value ([2]; post hoc tests, P<0.001 for pioglitazone) was “not naltrexone”, the “hepatic parameters (GGT, ALT, AST)” value ([2]; two months of treatment) was “ameliorated” and the “daily ethanol intake (number of daily drinks)” value ([2]; vs psychotherapy only) was “significantly reduced daily ethanol intake”. For the same compound, the “number of abstinence days” value ([2]; vs psychotherapy only) was “increased the number of abstinence days”, the voluntary ethanol intake [7] was “significantly reduced” and the “conditioned (cue-induced) reinstatement of alcohol-seeking” value [8] was “significantly reduced reinstatement of ethanol seeking; also recorded: significantly reduced cue-induced reinstatement of alcohol-seeking”.
